Type in all cases: cell-based, human
One experiment deals with HSC-3 cells. The experiment can be described thus: Live cell apoptosis assay (caspase 3/7, proliferation). The conditions noted are these: HSC-3, 24 h; MPMs 5 or 10 µM, cisplatin 10 µM. As to the method: A black-walled 96-well plate (#6005182, PerkinElmer, Waltham, MA, United States) was coated with 50 µl myogel (0.5 mg/ml) per well. The next day, HSC-3 and UT-SCC-24A cells were stained with CellTrace Far Red (Invitrogen, Carlsbad, CA, USA) by resuspending 500,000 cells in 500 µl PBS and adding 0.5 µl of the dye before incubating the cells at 37°C for 20 min. Next, 2.5 ml of complete media was added to the cells, and they were incubated for another 5 min. The cells were then centrifuged and resuspended in complete media. The media remaining in the wells of the 96-well plate after myogel coating was removed and the cells were seeded with 1,000 cells/well in 100 µl of media. The cells were left to adhere overnight, and the following day, the media was replaced with 100 µl of media containing the Incucyte® caspase-3/7 green dye for apoptosis (Sartorius, Göttingen, Germany) (diluted 1:1,000), as well as 5 or 10 µM of the MPMs or 10 µM cisplatin. Control wells only contained media and the caspase-3/7 green dye. The plate was placed in the Incucyte S3 (Sartorius) and imaged at ×10 magnification every 2 hours for 24 h in total. Each condition had triplicate wells, and four images were taken per well. The experiment was conducted three times. The Incucyte software was used to analyze the area of red fluorescence (proliferation) and number of green and red objects (apoptotic cells).

The test system of another experiment is UT-SCC-24A cells. The experiment can be described thus: MTS viability assay with bafilomycin A1 and z-VAD-FMK. The conditions noted are these: 24 h, cisplatin 50 µM, MPM-2:0/MPM-6:0 10 µM, MPM-3:2/MPM-4:2 20 µM. On the procedure:
HSC-3 and UT-SCC-24A cells were seeded, 10,000 cells/well, in flat bottom 96-well plates and left to adhere overnight. The supernatants were then removed and replaced by 50 µl of complete DMEM/F-12 ± 100 nM BafA1 (#196000, Sigma-Aldrich, St. Louis, MO, United States) or 50 µM z-VAD-FMK (#219007, Sigma-Aldrich). The plate was then incubated for 1 hour before another 50 µl of complete DMEM/F-12 ± 100 nM BafA1 or 50 µM z-VAD-FMK as well as the MPMs or cisplatin was added. The final concentration of cisplatin was 50 µM and for the MPMs it was 5 or 10 µM for MPM-2:0 and MPM-6:0, and 10 or 20 µM for MPM-3:2 and MPM-4:2, for HSC-3 and UT-SCC-24A cells, respectively. 100 μl of media ± 1% Triton X-100 served as […]. The cells were incubated for 24 h before 20 µl of MTS reagent (CellTiter 96® Aqueous One Solution, Promega, Madison, WI, United States) was added to each well. The plate was then incubated for one more hour before absorbance was measured at 490 nm on a VersaMaxTM Microplate reader (Molecular Devices, San Jose, CA, United States). Viability was calculated using the following formula: %=Abs treated sample−Abs positive control/Abs negative control−Abs positive control x 100
At least three independent experiments were performed, with triplicate wells in each experiment.

Experiment [1] concerns phosphorylated eIF2α in HSC-3 cells. The experiment can be described thus: Western blot for phosphorylated eIF2α. The conditions noted are these: HSC-3, 24 h; cisplatin 50 µM, MPMs 5-20 µM. As to the method: (§1) HSC-3 and UT-SCC-24A cells were seeded, 300,000 cells/well, in 6-well plates and left to adhere overnight. The media was then removed and replaced by 2 ml complete DMEM/F-12 containing 5, 7.5, 10 or 20 µM of MPM-2:0, MPM-6:0, MPM-3:2 or MPM-4:2, or 50 µM cisplatin. Some cells were left untreated. The cells were then incubated for 24 h. Next, the cell supernatants were collected before the cells were trypsinized and spun down with the supernatants. The cells were then washed twice in ice-cold PBS before being resuspended in 100 µl RIPA buffer (25 mM Tris-HCl (pH 7,6), 150 mM NaCl, 0.1% SDS, 0.5% sodium deoxycholate, 1% Triton X-100) containing 1% protease inhibitor (SIGMAFASTTM, #S8830, Sigma-Aldrich) and incubated on a shaker for 30 min. Next, the samples were sonicated and then kept at −70°C before being used. The samples were kept on ice or at 4°C during the whole procedure. The samples were thawed on ice and the protein concentration was measured using the DC Protein Assay kit (#5000111, Bio-Rad Laboratories, Hercules, CA, United States). 8 μg of protein was taken from each sample and mixed with DTT (final concentration 50 mM) and 20% 5 × sample buffer (250 mM Tris-HCl pH 6.8, 10% SDS, 20% Glycerol, 0.01% Bromphenol Blue). […]

The subject of experiment [2] is phosphorylated eIF2α in UT-SCC-24A cells. In words: Western blot for phosphorylated eIF2α. As to conditions: 24 h, cisplatin 50 µM, MPMs 5-20 µM. On the procedure: as §1
In general terms: Immunoblotting shows a protein as a band on a membrane.

Structures are written as SMILES.

On to `N.N.[Cl][Pt][Cl]` [Cisplatin, cisplatin, reference compound], for which, in the experiment on HSC-3 cells, the “activation of caspase 3/7 / apoptosis (in words)” value is “only induced apoptosis in a minority of HSC-3 cells” and the “proliferation (area of red fluorescence, in words)” value is reported as “inhibited proliferation in HSC-3 cells”. In addition, the “viability in the presence of BafA1 (100 nM) or z-VAD-FMK (50 µM) (in words)” value in the experiment with UT-SCC-24A cells is reported as “z-VAD-FMK seemed to have some protective effects against cisplatin for both cell lines, while BafA1 had the opposite effect”. For the same compound, in experiment [1], the “phosphorylation of eIF2α (in words)” value is “induced high levels of phosphorylated eIF2α”. In experiment [2], the “phosphorylation of eIF2α (in words)” value is on record as “induced high levels of phosphorylated eIF2α”.

For the origin of these results see paper PMC10098121, “Amphipathic barbiturates as marine product mimics with cytolytic and immunogenic effects on head and neck squamous cell carcinoma cell lines” (Frontiers in Pharmacology, 2023).
